Data on 1 compound can be found in BindingDB's records for patent US20250188095 (Jiangsu Nhwa Pharmaceutical Co., 2025).

A value given as a limit tells only on which side of the number the result lay.

This test deals with T1, Orexin/Hypocretin receptor type 1 (Homo sapiens, UniProt O43613).
T1 sequence (O43613 whole entry): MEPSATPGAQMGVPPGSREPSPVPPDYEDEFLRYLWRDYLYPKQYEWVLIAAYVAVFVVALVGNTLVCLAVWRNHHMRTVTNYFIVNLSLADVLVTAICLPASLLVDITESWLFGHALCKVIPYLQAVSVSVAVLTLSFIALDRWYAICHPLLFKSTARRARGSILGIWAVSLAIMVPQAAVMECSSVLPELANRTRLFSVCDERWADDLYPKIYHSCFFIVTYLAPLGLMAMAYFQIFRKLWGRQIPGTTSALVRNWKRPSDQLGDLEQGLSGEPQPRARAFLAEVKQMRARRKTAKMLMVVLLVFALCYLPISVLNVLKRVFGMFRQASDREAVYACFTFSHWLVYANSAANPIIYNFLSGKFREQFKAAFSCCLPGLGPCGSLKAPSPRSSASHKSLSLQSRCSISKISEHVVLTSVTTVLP
As to the kind of experiment: In Vitro Activity Assay. The method, then: The cells were centrifuged at 1000 rpm for 5 min, and the supernatant was discarded. 3 mL of PBS was added, and the mixture was gently pipetted to be mixed well. The cells were centrifuged again at 1000 rpm for 5 min, and the supernatant was discarded.

A word on the IC50: it is the concentration that inhibits the measured activity by half. High values mean weaker potency, low ones greater potency. Regarding `Cc1cc(C)nc(N2C[C@H]3CN(C(=O)c4c(-c5ccsc5)cn5ccccc45)C[C@H]3C2)n1` [US20250188095, Example 17], the IC50 is above 1000 nM.
